Data on three compounds can be found in patent publication US5384243A, “Method for screening an agent for its ability to prevent cell transformation” (priority 1992, dated 1995).

For assay [1], the target named is T1, m2 mACHR (Homo sapiens, UniProt P08172).
T1 sequence (P08172 1-466): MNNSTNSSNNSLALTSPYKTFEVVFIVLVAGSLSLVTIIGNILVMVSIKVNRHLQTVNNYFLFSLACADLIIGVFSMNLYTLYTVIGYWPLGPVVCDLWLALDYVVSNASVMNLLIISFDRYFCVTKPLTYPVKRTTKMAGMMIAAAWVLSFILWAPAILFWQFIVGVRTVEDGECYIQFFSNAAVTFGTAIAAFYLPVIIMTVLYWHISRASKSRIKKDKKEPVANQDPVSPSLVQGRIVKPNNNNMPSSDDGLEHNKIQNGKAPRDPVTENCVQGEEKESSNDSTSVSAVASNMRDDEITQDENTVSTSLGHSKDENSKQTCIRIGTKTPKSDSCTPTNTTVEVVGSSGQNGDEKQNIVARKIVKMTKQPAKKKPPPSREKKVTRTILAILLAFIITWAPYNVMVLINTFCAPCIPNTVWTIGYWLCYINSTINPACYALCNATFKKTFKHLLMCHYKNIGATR

The subject of assay [2] is NIH/3T3 cells. Put plainly: [3H]NMS binding to membranes of vector (pDS, neo) transfectants.
For assay [3], the system named is human muscarinic acetylcholine receptors. The assay can be described thus: Focus assay after transfection of NIH/3T3 cells, mACHR genes in general. The assay is classed as cell-based. The note with it: atropine 10 μM. From the text:
(§1) Transfection. […] Mass populations expressing the transfected neogene were selected for their ability to grow in the presence of geneticin (G418) (Gibco). Transformed foci were scored in stained plates of NIH/3T3 2-3 weeks after transfection. Individual G418 colonies or transformed foci were isolated with the aid of cloning cylinders, and maintained in Dulbecco's Modified Eagle Medium containing 10% calf serum.
(§2) DNA Constructs. […] Analysis of Receptor Expression.
(§3) Foci of transformation were scored after 2-3 weeks. The efficiency of transfection was determined by scoring neo resistant colonies in medium containing G418 (0.750 mg/ml). […] Results represent the average of three independent experiments.

A further assay has as its target T2, m5 mACHR (Homo sapiens, UniProt P08912).
T2 construct: carbachol-dependent focus formation
T2 sequence (P08912 1-532): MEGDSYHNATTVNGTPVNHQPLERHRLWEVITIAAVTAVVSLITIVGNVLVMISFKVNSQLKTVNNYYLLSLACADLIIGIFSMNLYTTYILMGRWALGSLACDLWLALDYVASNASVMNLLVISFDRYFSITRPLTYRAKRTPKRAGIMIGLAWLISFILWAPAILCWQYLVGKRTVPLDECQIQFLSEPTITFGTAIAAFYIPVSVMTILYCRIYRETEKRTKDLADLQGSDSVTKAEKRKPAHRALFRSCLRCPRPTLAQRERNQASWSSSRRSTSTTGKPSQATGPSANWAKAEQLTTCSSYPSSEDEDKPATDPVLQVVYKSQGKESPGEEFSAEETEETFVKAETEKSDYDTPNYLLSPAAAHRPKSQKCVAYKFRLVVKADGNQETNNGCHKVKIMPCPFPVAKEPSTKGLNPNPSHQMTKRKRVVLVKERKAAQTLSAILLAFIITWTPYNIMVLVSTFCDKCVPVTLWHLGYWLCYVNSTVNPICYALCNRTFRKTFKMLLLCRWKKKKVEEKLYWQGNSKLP
The assay can be described thus: Focus assay after transfection of NIH/3T3 cells, pDS m5. The assay is classed as cell-based. The note with it: for Focus-forming activity: pDS m5.
Description: as §1, §2, §3

The subject of assay [4] is NIH/3T3 cells. The assay can be described thus: Focus assay after transfection of NIH/3T3 cells, pDS vector. The assay is classed as cell-based, murine.
Description: as §1, §2, §3

The subject of assay [5] is NIH/3T3 cells. Put plainly: PI hydrolysis in neo NIH/3T3 cells. The assay is classed as cell-based, murine. The note with it: Mus musculus, NIH3T3, 1 h, binding 0, read-out: PI Hydrolysis Maximal activation. From the text:
Phosphatidylinositol Hydrolysis.
EC50, half maximal concentration.

A further assay relates to m1, m2, m3 or m4 mACHRs. Put plainly: cAMP assay without forskolin. Particulars: 1 mM carbachol, 10 min. (cAMP levels reflect the balance of adenylyl cyclase and phosphodiesterase activity.)
Assay [6] concerns NIH/3T3 cells. Particulars: neo, binding 0.
For assay [7], the target named is T1, m2 mACHR. Put plainly: Focus assay after transfection of NIH/3T3 cells, pDS m2. Particulars: for Focus-forming activity: pDS m2. Type of assay: cell-based. Also noted: expressed in transfected cells; host or cells: NIH/3T3 murine fibroblasts (plasmid pDS m2).
Description: as §1, §2, §3

In assay [8] the target is T3, m4 mACHR (Homo sapiens, UniProt P08173).
T3 sequence (P08173 1-479): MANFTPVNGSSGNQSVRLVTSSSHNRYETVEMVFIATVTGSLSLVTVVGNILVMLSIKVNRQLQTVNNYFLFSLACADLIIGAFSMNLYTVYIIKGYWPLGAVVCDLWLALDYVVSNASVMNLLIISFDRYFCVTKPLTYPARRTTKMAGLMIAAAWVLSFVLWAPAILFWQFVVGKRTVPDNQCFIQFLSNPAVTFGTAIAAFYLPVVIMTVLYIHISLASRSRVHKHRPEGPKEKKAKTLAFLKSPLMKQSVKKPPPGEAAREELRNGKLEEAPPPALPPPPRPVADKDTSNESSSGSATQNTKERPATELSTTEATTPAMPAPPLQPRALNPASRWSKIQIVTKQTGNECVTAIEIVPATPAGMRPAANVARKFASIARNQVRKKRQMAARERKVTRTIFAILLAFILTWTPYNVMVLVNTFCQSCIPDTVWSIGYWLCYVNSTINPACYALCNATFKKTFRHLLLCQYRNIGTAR
Put plainly: Focus assay after transfection of NIH/3T3 cells, pDS m4. The arrangement: expressed in transfected cells; host or cells: NIH/3T3 murine fibroblasts (plasmid pDS m4). Particulars: for Focus-forming activity: pDS m4. The assay is classed as cell-based.
Description: as §1, §2, §3

Assay [9] concerns the target T1, m2 mACHR. The assay can be described thus: cAMP assay, forskolin-stimulated, m2 clones. Type of assay: cell-based. Also noted: expressed in transfected cells; host or cells: NIH/3T3 murine fibroblasts (plasmid pDS m2). Particulars: 1 mM carbachol, m2 (FIG. 4).
Assay [10] concerns the target T3, m4 mACHR. Put plainly: cAMP assay, forskolin-stimulated, m4 clones. Particulars: 1 mM carbachol, m4 (FIG. 4). Type of assay: cell-based. Also noted: expressed in transfected cells; host or cells: NIH/3T3 murine fibroblasts (plasmid pDS m4).

With `C[N+]1(C)C2CC(OC(=O)C(CO)c3ccccc3)CC1C1OC12` (stereo not shown) [[^3 H]NMS, N-methylscopolamine], the Binding is 308 fmoles [^3 H]NMS/mg protein at m2 mACHR [1] (G418 selected m2 clone (Table 3)) and 0 fmoles [^3 H]NMS/mg protein in the assay with NIH/3T3 cells [2] (neo clone (Table 3)). The “Binding [3H]NMS” value at m2 mACHR [1] (mass culture, pDS m2) is 90 fmoles [^3 H]NMS/mg protein; in the assay with NIH/3T3 cells [2] (mass culture, pDS), < 1 fmoles [^3 H]NMS/mg protein.

On to `CN1[C@@H]2CC[C@H]1C[C@@H](OC(=O)C(CO)c1ccccc1)C2` (stereo partly shown) [atropine], for which, in assay [3], the “foci of transformation in cells maintained in atropine” value is “No foci of transformation were observed”. Moreover, in assay [3] (data not shown), the “carbachol induced focus-formation in presence of atropine” value is “abolished”.

Regarding `C[N+](C)(C)CCOC(N)=O` [carbachol], the Focus-forming activity at m5 mACHR (carbachol 10^-4 M) is 47 per pmol DNA; at m5 mACHR (carbachol 10^-6 M), < 5 per pmol DNA; in the assay on NIH/3T3 cells [4] (carbachol 10^-4 M), < 1 per pmol DNA; in the assay with NIH/3T3 cells [4] (carbachol 10^-6 M), < 1 per pmol DNA; at m2 mACHR [7] (carbachol 10^-4 M), < 1 per pmol DNA; on m2 mACHR [7] (carbachol 10^-6 M), < 1 per pmol DNA. The Focus-forming activity at m4 mACHR [8] (carbachol 10^-4 M) and on m4 mACHR [8] (carbachol 10^-6 M) was < 1 per pmol DNA each time. Also, the results for the “foci of transformation in presence of carbachol” value on m5 mACHR (m5 transfectants), on m2 mACHR [7] (m2 transfected cultures) and on m4 mACHR [8] (m4 transfected cultures) were “foci of transformation readily appeared”, “not m2 or m4” and “not m2 or m4”, respectively. Moreover, the Emax in the assay with NIH/3T3 cells [5] was 100%. The “cAMP accumulation without forskolin” value with m1, m2, m3 or m4 mACHRs is listed as “did not accumulate detectable cAMP”. The “Transformation Maximal transportation” value in the assay on NIH/3T3 cells [6] was 0. The “cAMP levels in forskolin treated cells” value on m2 mACHR [9] and on m4 mACHR [10] was “decreased” each time.
